Assay results reported in patent US5964224A, “Method for treating amyotrophic lateral sclerosis and a therapeutic agent therefor” (priority 1997, dated 1999).
Entries after “also recorded” stand apart in the source; their conditions may differ.

Key:
patients with ALS [1] = conditions: cited from earlier work; for beneficial effects in ALS: anecdotal or preliminary observations; for potency in improving the clinical symptoms or prolonging life: patients with ALS
patients with ALS [2] = assay: Double-blind trial: averaged compound muscle action potential (CMAP) amplitudes in ALS patients, ultra-high versus low dose i.m.; format: in vivo, human
Protocol: (§1) To develop a symptomatic treatment for amyotrophic lateral sclerosis, I have compared the effects of ultra-high dose and low dose (25 mg/day and 0.5 mg/day, i.m. for 14 days) of methylcobalamin on the averaged compound muscle action potential amplitudes, which serve as an index of muscle power, in a double-blind trial.
(§2) […] were recorded bilaterally from the abductor pollicis brevis, abductor digiti minimi and abductor hallucis muscles after stimulation of the median, ulnar and tibial nerves at the wrist or at the ankle. Amplitudes were measured from the baseline to the negative peak. In each patient, the average amplitude from the six muscles (averaged CMAPs) served as an index of the number of muscle fibers innervated by spinal motoneurons. The method employed was that of Kelly et al.[Muscle Nerve 10, 471-179 (1990)] and Kimura [in Electrodiagnosis in diseases of nerve and muscle: principles and practice, 2nd edition, F. A. Davis ed.(1989), pages 85-87], the disclosures of which are incorporated herein by reference.
(§3) A total of 24 ALS patients without respiratory failure entered the study after giving an informed consent for the protocol approved by the Institutional Review Board. Twelve of them (High Dose Group; age 45-66 years, 5 men) received the ultra-high dose (25 mg/day or 360-610 μg/kg/day, i.m.) methylcobalamin and the other 12 (Low Dose Group; age 41-66 years, 6 men) received the low dose (0.5 mg/day or […],i.m.) as a control. The two groups were matched for age, disease durations (19.6±4.1 versus 21.7±3.2 months) and initial averaged CHAP amplitudes (5.27±0.84 versus 4.48±0.91 mV). The patients were blinded as to the dose. The examiner, who was not informed of the dose, measured CMAPs immediately before starting methylcobalamin (day 1), at the end of 2 weeks of administration (day 14) and at 4 weeks after the start (day 28).

patients with ALS [3] = assay: Clinical symptoms (gait, weakness) and duration of benefit in ALS patients; format: in vivo, human
Protocol: as §3

patients with ALS [4] = assay: Adverse reactions in ALS patients (clinical trial); format: in vivo, human
Protocol: as §1, §3

patients with ALS [5] = assay: Averaged CMAP amplitudes before and after treatment in ALS patients, 0.5 mg/day i.v., 15 mg/day i.v. and 25 mg/day i.m. groups; format: in vivo, human
Protocol: as §2
CMAP amplitudes were averaged in 10 patients with ALS treated with a low dose of methycobalamin (0.5 mg/day i.v. for 2 weeks). Those before the treatment and those 2 weeks after the completion of the treatment were compared.
CMAP amplitudes were averaged in 12 patients with ALS treated with a high dose of methylcobalamin (15 mg/day i.v. for 2 weeks). Those before the treatment, those at the end of the treatment and those 2 weeks after the completion of the treatment were compared.
CMAP amplitudes were averaged in 12 patients with ALS treated with an ultra-high dose of methylcobalamin (25 mg/day i.m. for 2 weeks). Those before the treatment, those at the end of the treatment and those 2 weeks after the completion of the treatment were compared.
The ratio of averaged CMAP amplitudes at 2 weeks after the completion of the treatment (after 4 wks) was compared with those before the treatment.

patient with ALS = assay: Time course of averaged CMAP amplitude in a patient with ALS given 50 mg/day; format: in vivo, human; conditions: day 0 through 13, one patient
Protocol: as §2
These clinical benefits and improved CMAPs usually lasted for 1-3 months, then followed by deterioration. […] Serial changes of averaged CMAP amplitudes in low dose (0.5 mg/day i.m., n=12) group and high dose (25 mg/day i.m., n=12) group were examined. Methylcobalamin was given during day 0 through day 13. […] The time course of averaged CMAP amplitude changes in a patient with ALS who was given 50 mg/day of methylcobalamin during day 0 day through 13 was examined.

rats = conditions: 0.5, 5.0 and 20.0 mg/kg/day i.p., 30 days; cited from earlier work
beagles [6] = conditions: 90 days, cited from earlier work
rat [7] = conditions: same doses as subacute, 6 months; cited from earlier work
beagles [8] = conditions: 50.0 mg/kg/day, 6 months, cited from earlier work
rat [9] = conditions: 20 mg/kg/day i.p. (organogenesis) or 50 mg/kg i.v. (pre-gestation to postnatal); cited from earlier work
mouse = conditions: 20 mg/kg/day i.p., organogenesis; cited from earlier work
rabbit = conditions: 50 mg/kg/day, organogenesis; cited from earlier work
animals = conditions: cited from earlier work
[10] = degraded into hydoxycobalamin; cited from earlier work
[11] = intramuscular versus intravenous route; cited from earlier work
[12] = High Dose Group, 25 mg/day i.m., n=12

Molecule: O=P1(N(CCCl)CCCl)NCCCO1 (stereo not shown) [cyclophosphamide]
- beneficial effects in ALS (patients with ALS [1]): beneficial effects

Molecule: COc1ccc2c(c1)[C@]13CCCC[C@@H]1[C@H](C2)N(C)CC3 [dextromethorphan]
- potency in improving the clinical symptoms or prolonging life (patients with ALS [1]): not yet convincingly shown their potency

Molecule: C/C1=C2/[N-][C@H]([C@H](CC(N)=O)[C@@]2(C)CCC(=O)NC[C@@H](C)OP(=O)([O-])O[C@H]2[C@@H](O)[C@@H](n3cnc4cc(C)c(C)cc43)O[C@@H]2CO)[C@]2(C)N=C(/C(C)=C3N=C(/C=C4N=C1[C@@H](CCC(N)=O)C\4(C)C)[C@@H](CCC(N)=O)[C@]\3(C)CC(N)=O)[C@@H](CCC(N)=O)[C@]2(C)CC(N)=O.[CH3-].[Co+3] [methylcobalamin]
- ratio of averaged CMAP amplitude at day 14 or day 28 to that at day 0 (patients with ALS [2]; 25 mg/day and 0.5 mg/day i.m., n=12 each): only the high dose group showed a significant increase in the ratio at day 28
- change in averaged CMAP amplitude (patients with ALS [2]; 25 mg/day i.m., at 2 weeks (day 14)): not at 2 weeks
- CMAP amplitude ratio between day zero and day 28, High Dose versus Low Dose Group (patients with ALS [2]; 25 mg/day versus 0.5 mg/day i.m.): significantly higher ratio than Low Dose Group
- parameter of muscle power (CMAPs) (patients with ALS [2]; 15-500 mg/day, i.m., s.c. or i.v. for 14 days, low dose as control (summary statement)): significantly increases the parameter of muscle power
- change in averaged CMAP amplitude (patients with ALS [2]; low dose 0.5 mg/day i.m. for 14 days, at 2 or 4 weeks): No significant changes in CMAP amplitude
- change in averaged CMAP amplitude (patients with ALS [2]; low dose 0.5 mg/day i.m. for 14 days, at 2 or 4 weeks, listed as Methylcobalamin): no significant changes in CMAP amplitude
- change in averaged CMAP amplitude (patients with ALS [2]; ultra-high dose 25 mg/day i.m. for 14 days, at 4 weeks (day 28)): significant increase at 4 weeks; also recorded: increase of averaged CMAP amplitudes at day 28
- change in averaged CMAP amplitude (patients with ALS [2]; ultra-high dose 25 mg/day i.m. for 14 days, at 4 weeks (day 28), listed as Methylcobalamin): significant increase at 4 weeks
- subjective weakness (patients with ALS [3]; 15-500 mg/day, i.m., s.c. or i.v. for 14 days (summary statement)): improves the subjective weakness
- improvement in gait and weakness (patients with ALS [3]; [12]): Two patients in High Dose Group noted an improvement in gait and weakness
- duration of clinical benefits and improved CMAPs (patients with ALS [3]; High Dose Group, 25 mg/day i.m., then followed by deterioration): 1-3 months
- improvement of clinical symptoms and objective clinical measure (patients with ALS [3]; ultra-high dose, ALS patients): improvement of both clinical symptoms and an objective clinical measure
- adverse reactions: elevation of serum GOT and GPT (patients with ALS [4]; [12]): mild elevation of serum GOT and GPT in another
- adverse reactions: skin rash (patients with ALS [4]; [12]): skin rash in one patient
- duration of adverse reactions (skin rash; GOT/GPT elevation) (patients with ALS [4]; High Dose Group, 25 mg/day i.m., both): about a week
- major side effects (patients with ALS [4]; clinical trial, 25 mg/day and 0.5 mg/day i.m. for 14 days): No major side effects were seen
- change in averaged CMAP amplitude (patients with ALS [5]; 0.5 mg/day i.v. for 2 weeks, 10 patients, 2 weeks after completion vs before): No significant changes were found
- change in averaged CMAP amplitude (patients with ALS [5]; 15 mg/day i.v. for 2 weeks, 12 patients, before, end, 2 weeks after completion): tendency toward increase of CMAPs at 2 weeks after the completion of the treatment, no statistically significant differences were found
- change in averaged CMAP amplitude (patients with ALS [5]; 25 mg/day i.m. for 2 weeks, 12 patients, 2 weeks after completion): statistically significant increase of CMAPs at 2 weeks after the completion of the treatment
- ratio of averaged CMAP amplitudes 2 weeks after completion to before treatment, ultra-high versus low dose group (patients with ALS [5]; 25 mg/day i.m. versus 0.5 mg/day i.v., 2 weeks, FIG. 1): statistically significant difference
- p value, ratio of averaged CMAP amplitudes between groups (patients with ALS [5]; 25 mg/day i.m. versus 0.5 mg/day i.v., unpaired t-test): < 0.05
- time course of averaged CMAP amplitude (patient with ALS): abrupt increase of the amplitude during and after the treatment
- general conditions, body weight, blood and urine chemistry, organ weights and histological findings (rats): no significant changes in the general conditions, body weight, blood and urine chemistry, organ weights and histological findings
- epididymis findings (beagles [6]; 50.0 mg/kg/day i.v., a dog): No changes were noted in the epidydimis
- histological finding in the kidney (beagles [6]; 50.0 mg/kg/day i.v., a dog): increased eosinophilic granules in the proximal tubules in the kidney
- subacute toxicity findings (beagles [6]; 0.5, 5.0 and 50.0 mg/kg/day i.v.): normal findings
- chronic toxicity findings (rat [7]): No significant changes were found
- Kupffer cells in the liver (beagles [8]): increased number of Kuppfer cells in the liver
- lysosomes, electron microscopy (beagles [8]): increase in lysosomes
- mesangial cells in the renal glomeruli (beagles [8]): lysosomal increase in the mesangeal cells in the renal glomeruli
- kidney proximal tubules, light microscopy (beagles [8]; only this dose): increased eosinophilic granules in the proximal tubules in the kidney
- changes in the embryo, the fetus or the neonate (rat [9]): no significant changes in the embryo, the fetus or the neonate
- changes in the embryo, the fetus or the neonate (mouse): no significant changes in the embryo, the fetus or the neonate
- changes in the embryo, the fetus or the neonate (rabbit): no significant changes in the embryo, the fetus or the neonate
- major side effects (animals; 50 mg/kg/day, animals): no major side effects have been observed
- edema and redness of the skin (animals; 50 mg/kg/day, on rare occasions): transient edema and redness of the skin
- red urine (animals; disappears after discontinuing the administration): Red urine may be found, but it soon disappears
- light sensitivity [10]: light-sensitive, and is easily degraded into hydoxycobalamin
- half life in the blood level [11]: longer half life in the blood level

Molecule: Nc1nc2ccc(OC(F)(F)F)cc2s1 [riluzole]
- prolongation of life without tracheostomy (patients with ALS [1]; a subgroup of ALS): 1-3 months

Molecule: IGF-1: insulin-like growth factor-1
- beneficial effects in ALS (patients with ALS [1]): beneficial effects

Molecule: superoxide dismutase
- potency in improving the clinical symptoms or prolonging life (patients with ALS [1]): not yet convincingly shown their potency

Molecule: vitamin E
- potency in improving the clinical symptoms or prolonging life (patients with ALS [1]): not yet convincingly shown their potency

B1: ciliary neurotrophic factor: ciliary neurotrophic factor (protein, UniProt P26441 1-200, looked up)
Ciliary neurotrophic factor: MAFTEHSPLTPHRRDLCSRSIWLARKIRSDLTALTESYVKHQGLNKNINLDSADGMPVASTDQWSELTEAERLQENLQAYRTFHVLLARLLEDQQVHFTPTEGDFHQAIHTLLLQVAAFAYQIEELMILLEYKIPRNEADGMPINVGDGGLFEKKLWGLKVLQELSQWTVRSIHDLRFISSHQTGIPARGSHYIANNKKM
- potency in improving the clinical symptoms or prolonging life (patients with ALS [1]): not yet convincingly shown their potency
